Reference: patent publication US10660789B2, “1,4-dihydropyridine derivatives with HSP modulating activity” (Richter Gedeon NYRT., priority 2011, dated 2020)
Counter-ions that a name gives are not always drawn.

Test system: Hsp25
Assay: Other in vitro effects, Hsp25 (Table 3)
Format: cell-based, mouse and human
Design: key: +: co-inducing activity; −: silencing activity; 0: with the experimental methods applied no other HSP modulating effects could be identified
Experimental: The Hsp co-inducing effect of the compounds on stress response was tested on B16 mouse melanoma and SHSY5Y human neuroblastoma cell lines stably transfected with Hsp promoter probing plasmids. This kind of promoter probing, using the promoter region of a given gene conjugated with fluorescent protein is used as a best and fastest test system for finding drugs which modulate the activity of the gene followed by the given promoter (Wyshocka et al., Mol. Cel. Biochem. 215:153-156, 2000).
Reporter plasmids, containing the Hsp70 and/or Hsp25 promoter conjugated to either YFP or GFP (yellow or green fluorescent protein), were stably transfected into the cells and the expression of YFP or GFP was followed by flow cytometry. Cells were either kept at 37° C. or exposed to heat shock at 42° C. for 1 hour followed by a 16 hour recovery period at 37° C. in the presence or absence of different concentrations of the test compound. After recovery the expression of YFP or GFP which is in straight correlation with the promoter activity of Hsp70 or Hsp27 genes was followed by measuring the fluorescence intensity of the cells by flow cytometry. Fluorescence intensity is in straight correlation with the amount of fluorescent protein (GFP or YFP) produced under the control of hsp promoter. The mean fluorescence intensity of YFP or GFP produced is shown as “Hsp promoter activity”.
Cells were homogenously distributed on 6-well plates in 1×10^5 cells/well density. B16-pHsp25-GFP and B16-pHsp70-YFP melanoma cells were grown in RPMI-1640 medium supplemented with 10% Fetal bovine serum (FBS), penicillin (200 units/ml), streptomycin (200 μg/ml) and 2 mM L-Glutamine. […] The changes in cells' fluorescence were detected using BD FACSCalibur flow cytometer.
SY-SY5Y and B16 cells were extracted in NP-40 lysis buffer (PBS pH 7.4, 1% protease inhibitor coctail and 1% Triton X-100). […] The immune complexes were detected with chemo-luminescent substrate of peroxidase according to the supplier's instructions. Images taken from the membranes were analyzed using AlphaEase FC software.

COC(=O)C1=C(CCN(C)C)N(C)C(CCN(C)C)=C(C(=O)OC)C1c1ccc(C(F)(F)F)cc1 [Example 23, Dimethyl 4-(4-trifuoromethylphenyl)-2,6-bis-(2-dimethylaminoethyl)-1-methyl-1,4-dihydropyridine-3,5-dicarboxylate dihydrochloride]
Other in vitro effects: Hsp25: Hsp25 0
